Measured values: US7259140B2, “Heparin-binding peptides and uses thereof” (Thomas Jefferson University, priority 2003, dated 2007)

Key:
[1] = tested on: anti-Factor Xa Activity of the Low Molecular Weight Heparin Lovenox ®; experiment: Anti-Factor Xa assay (Stachrom Heparin kit): neutralization of Lovenox in citrate or plasma in vitro; assay type: biochemical, human; conditions: for Lovenox ® Neutralized: Lovenox 0.7 U/ml
How it was run: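 Chromogenic anti-Factor Xa kit run with UFH, enoxaparin (Lovenox) or danaparoid (Orgaran) in 0.32% citrate or citrated plasma from three volunteers. Heparin/ATIII complex formed, peptide added, then Factor Xa and dye substrate; absorbance at 405 nm, inversely proportional to remaining anti-Factor Xa activity.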

[2] = tested on: Anti-Factor Xa Activity of the Non-Heparin Glycosaminoglycan Orgaran ®; experiment: Anti-Factor Xa assay: neutralization of Orgaran in citrate or plasma in vitro; assay type: biochemical, human
Method: The ability of peptides such as (ARKKAAKA)3VLVLVLVL (SEQ ID NO:5) to neutralize the anti-Factor Xa activity of UFH and LMWH in vitro was tested using the Stachrom Heparin kit (Diagnostica Stago), a standard hematology laboratory assay used to measure the anti-Factor Xa activity of heparin. The assay was performed using the low molecular weight heparin enoxaparin sodium (Lovenox®, Aventis Pharmaceuticals, Inc.), unfractionated heparin (UFH), or the non-heparin glycosaminoglycan danaparoid sodium (Orgaran®, Organon Inc., West Orange, N.J.) in 0.32% citrate or in plasma anticoagulated with 0.32% citrate. Enoxaparin is commonly used clinically as a low molecular weight heparin (LMWH). Danaparoid is commonly used clinically as a non-heparin glycosaminoglycan anticoagulant. Currently, the only FDA approved drug to target UFH is protamine, which is not effective in vivo against LMWH or a non-heparin glycosaminoglycan such as danaparoid. Buffer and ATIII are added to form the heparin/ATIII complex, peptide is added, then Factor Xa, reporter dye substrate for Factor Xa activity, and stop solution, and the dye concentration is read at 405 nm. The absorbance of the dye increases with increasing Factor Xa activity, and thus is inversely proportional to the heparin (anti-Factor Xa activity) concentration. Peptides were tested in plasma obtained from three volunteers (A, B, and C). Platelet function inhibitors PG12 and theophylline were added to the blood immediately upon collection. […]

[3] = tested on: Lovenox ® Activity in Blood from Patients Treated with Lovenox ®; experiment: Neutralizing Lovenox activity in blood from patients treated with Lovenox (anti-Factor Xa assay); assay type: biochemical, human; conditions: for Lovenox ® Neutralized: Peptide 12 μg/ml
How it was run: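 Blood came from consenting volunteers already on Lovenox® therapy. Neutralizing peptides were tested as a dose response from 1–60 μg/ml. Each point is mean ± SD of triplicate analyses on one patient's blood sample.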

[4] = Hemodynamic effects in rats without prior Lovenox; conditions: no Lovenox
Method: Rats were sedated, and catheters were inserted into the femoral vein and femoral artery. The femoral artery catheter was hooked up to the computerized monitoring system, and injections were made through the femoral vein. Peptides were injected into rats without prior injection of Lovenox. Two or more rats (300-350 grams) were treated with 2 mg protamine or peptide.
At the times indicated in the figures, the following actions were taken: administration of saline to insure that the animal and intubations were stable; administration of test peptide or protamine alone; then administration of protamine.

## Protamine [reference compound]
[1]; 1 μg/ml Peptide, A Plasma
  Lovenox ® Neutralized: 0.038 ± 0.036 U/ml
[1]; 1 μg/ml Peptide, B Plasma
  Lovenox ® Neutralized: 0.086 ± 0.004 U/ml
[1]; 1 μg/ml Peptide, C Plasma
  Lovenox ® Neutralized: 0.070 ± 0.050 U/ml
[1]; 1 μg/ml Peptide, Citrate
  Lovenox ® Neutralized: 0.050 ± 0.016 U/ml
[1]; 6 μg/ml Peptide, A Plasma
  Lovenox ® Neutralized: 0.177 ± 0.033 U/ml
[1]; 6 μg/ml Peptide, B Plasma
  Lovenox ® Neutralized: 0.200 ± 0.026 U/ml
[1]; 6 μg/ml Peptide, C Plasma
  Lovenox ® Neutralized: 0.232 ± 0.065 U/ml
[1]; 6 μg/ml Peptide, Citrate
  Lovenox ® Neutralized: 0.256 ± 0.060 U/ml
[1]; 12 μg/ml Peptide, A Plasma
  Lovenox ® Neutralized: 0.232 ± 0.067 U/ml
[1]; 12 μg/ml Peptide, B Plasma
  Lovenox ® Neutralized: 0.249 ± 0.039 U/ml
[1]; 12 μg/ml Peptide, C Plasma
  Lovenox ® Neutralized: 0.285 ± 0.041 U/ml
[1]; 12 μg/ml Peptide, Citrate
  Lovenox ® Neutralized: 0.591 ± 0.032 U/ml
[1]; 12 μg/ml, plasma
  anti-Factor Xa activity of LMWH neutralized: about 0.25 U/ml
[1]; 60 μg/ml Peptide, A Plasma
  Lovenox ® Neutralized: 0.515 ± 0.066 U/ml
[1]; 60 μg/ml Peptide, B Plasma
  Lovenox ® Neutralized: 0.574 ± 0.022 U/ml
[1]; 60 μg/ml Peptide, C Plasma
  Lovenox ® Neutralized: 0.465 ± 0.021 U/ml
[1]; 60 μg/ml Peptide, Citrate
  Lovenox ® Neutralized: 0.570 ± 0.033 U/ml
[1]; 120 μg/ml Peptide, A Plasma
  Lovenox ® Neutralized: 0.562 ± 0.035 U/ml
[1]; 120 μg/ml Peptide, B Plasma
  Lovenox ® Neutralized: 0.592 ± 0.037 U/ml
[1]; 120 μg/ml Peptide, C Plasma
  Lovenox ® Neutralized: 0.499 ± 0.16 U/ml
[1]; 120 μg/ml Peptide, Citrate
  Lovenox ® Neutralized: 0.480 ± 0.058 U/ml
[1]; Table 2A
  anti-LMWH effect in citrate compared with plasma: greater anti-LMWH effect in citrate than in plasma
[2]; 1 μg/ml Peptide, A Plasma
  Orgaran Neutralized: 0.027 ± 0.004 U/ml
[2]; 1 μg/ml Peptide, B Plasma
  Orgaran Neutralized: 0.021 ± 0.007 U/ml
[2]; 1 μg/ml Peptide, C Plasma
  Orgaran Neutralized: 0.017 ± 0.006 U/ml
[2]; 1 μg/ml Peptide, Citrate
  Orgaran Neutralized: 0.030 ± 0.015 U/ml
[2]; 6 μg/ml Peptide, A Plasma
  Orgaran Neutralized: 0.050 ± 0.025 U/ml
[2]; 6 μg/ml Peptide, B Plasma
  Orgaran Neutralized: 0.040 ± 0.018 U/ml
[2]; 6 μg/ml Peptide, C Plasma
  Orgaran Neutralized: 0.034 ± 0.021 U/ml
[2]; 6 μg/ml Peptide, Citrate
  Orgaran Neutralized: 0.093 ± 0.046 U/ml
[2]; 12 μg/ml Peptide, A Plasma
  Orgaran Neutralized: 0.016 ± 0.013 U/ml
[2]; 12 μg/ml Peptide, B Plasma
  Orgaran Neutralized: 0.065 ± 0.014 U/ml
[2]; 12 μg/ml Peptide, C Plasma
  Orgaran Neutralized: 0.043 ± 0.018 U/ml
[2]; 12 μg/ml Peptide, Citrate
  Orgaran Neutralized: 0.308 ± 0.017 U/ml
[2]; 60 μg/ml Peptide, A Plasma
  Orgaran Neutralized: 0.140 ± 0.021 U/ml
[2]; 60 μg/ml Peptide, B Plasma
  Orgaran Neutralized: 0.241 ± 0.032 U/ml
[2]; 60 μg/ml Peptide, C Plasma
  Orgaran Neutralized: 0.234 ± 0.025 U/ml
[2]; 60 μg/ml Peptide, Citrate
  Orgaran Neutralized: 0.322 ± 0.038 U/ml
[2]; 120 μg/ml Peptide, A Plasma
  Orgaran Neutralized: 0.340 ± 0.021 U/ml
[2]; 120 μg/ml Peptide, B Plasma
  Orgaran Neutralized: 0.364 ± 0.013 U/ml
[2]; 120 μg/ml Peptide, C Plasma
  Orgaran Neutralized: 0.318 ± 0.019 U/ml
[2]; 120 μg/ml Peptide, Citrate
  Orgaran Neutralized: 0.136 ± 0.034 U/ml
[3]
  effectiveness in neutralizing Lovenox in blood of patients: neutralized Lovenox® in the blood of just one patient
[3]; blood of Lovenox-treated Patient Number 1
  Lovenox ® Neutralized: 0.016 U/ml
[3]; blood of Lovenox-treated Patient Number 2
  Lovenox ® Neutralized: 0.022 U/ml
[3]; blood of Lovenox-treated Patient Number 3
  Lovenox ® Neutralized: 0 U/ml
[3]; blood of Lovenox-treated Patient Number 4
  Lovenox ® Neutralized: 0.092 U/ml
[3]; blood of Lovenox-treated Patient Number 5
  Lovenox ® Neutralized: 0.013 U/ml
[3]; blood of Lovenox-treated Patient Number 8
  Lovenox ® Neutralized: 0.018 U/ml
[3]; blood of Lovenox-treated Patient Number 9
  Lovenox ® Neutralized: 0.244 U/ml
[3]; blood of Lovenox-treated Patient Number 10
  Lovenox ® Neutralized: 0.069 U/ml
[3]; blood of Lovenox-treated Patient Number 11
  Lovenox ® Neutralized: 0.021 U/ml
[4]; 2 mg per rat (300-350 grams)
  reduction/drop of blood pressure: 25-35 mm Hg
[4]; 2 mg per rat
  onset of blood pressure reduction: within less than a minute
  time to nadir of blood pressure: about 4.5 minutes
  time to recovery/reversal of blood pressure: 10 to 12 min
